Five compounds from US7544814B2, “[3.2.0] Heterocyclic compounds and methods of using the same” (Nereus Pharmaceuticals, Inc., priority 2004, dated 2009) can be followed below.

For one data set, the system named is MES-SA/Dx5. The data set is described as follows: Cell growth inhibition (resazurin), multidrug resistant MES-SA/Dx5. The note with it: for EC50: Table 3, 48 hours drug exposure. It counts as cell-based, human. Background: The colour change of resazurin is a common sign of viable cells or microbes.
The target in data set [1] is T1, trypsin-like activity of purified rabbit muscle 20S proteasome (Oryctolagus cuniculus, UniProt G1SWK8).
T1 sequence (G1SWK8 1-271): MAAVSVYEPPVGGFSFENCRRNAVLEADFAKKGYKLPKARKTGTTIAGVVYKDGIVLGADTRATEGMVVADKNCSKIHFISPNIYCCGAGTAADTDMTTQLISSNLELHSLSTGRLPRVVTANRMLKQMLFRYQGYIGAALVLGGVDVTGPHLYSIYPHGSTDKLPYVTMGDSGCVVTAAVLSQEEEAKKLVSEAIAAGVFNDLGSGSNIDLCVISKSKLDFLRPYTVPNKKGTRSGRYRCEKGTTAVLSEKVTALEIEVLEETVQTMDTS
The data set is described as follows: biochemical.

In data set [2] the test system is RPMI 8226. The data set is described as follows: Cell growth inhibition (resazurin), RPMI 8226. The note with it: Homo sapiens, RPMI-8226, 48 h, read-out: RPMI 8226 EC50, Table 2; 48 hours drug exposure; mean ± SD where n≥3.
Data set [3] deals with T2, caspase-like activity of purified rabbit muscle 20S proteasome (Oryctolagus cuniculus, UniProt A0A5F9DQW2).
T2 sequence (A0A5F9DQW2 1-212): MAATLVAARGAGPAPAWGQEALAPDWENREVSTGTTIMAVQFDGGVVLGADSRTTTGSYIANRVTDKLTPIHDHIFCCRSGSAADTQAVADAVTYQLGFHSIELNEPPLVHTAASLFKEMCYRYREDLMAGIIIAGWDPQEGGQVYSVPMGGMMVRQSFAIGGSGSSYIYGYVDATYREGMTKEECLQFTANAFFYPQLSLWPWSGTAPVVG
The data set is described as follows: In vitro inhibition of 20S proteasome caspase-like activity (Z-LLE-AMC). The settings on record: EC50 Caspase-like, Table 6, values in μM.

Data set [4] has as its system U266.
Data set [5] deals with T3, chymotrypsin-like activity of purified rabbit muscle 20S proteasome (Oryctolagus cuniculus, UniProt G1T4Q9).
T3 sequence (G1T4Q9 1-263): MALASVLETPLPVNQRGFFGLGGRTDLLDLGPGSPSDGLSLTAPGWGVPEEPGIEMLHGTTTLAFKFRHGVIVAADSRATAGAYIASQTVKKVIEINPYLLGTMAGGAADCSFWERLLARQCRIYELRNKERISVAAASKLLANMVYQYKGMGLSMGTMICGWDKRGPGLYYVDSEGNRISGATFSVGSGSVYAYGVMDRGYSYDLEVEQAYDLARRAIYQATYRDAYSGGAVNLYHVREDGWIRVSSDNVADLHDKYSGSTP
The data set is described as follows: In vitro inhibition of 20S proteasome chymotrypsin-like activity (suc-LLVY-AMC).

Data set [6] has as its system U266. The data set is described as follows: Cell growth inhibition (resazurin), U266. The note with it: 48 hours drug exposure.
Data set [7] concerns RPMI 8226. The data set is described as follows: cells. The note with it: 1% or 10% FBS. Here is the method:
RPMI 8226 (CCL-155), HT-29 (HTB-38), and B16-F10 (CRL-6475) cells were purchased from ATCC. RPMI 8226 cells were maintained in RPMI 1640 media supplemented with 10% (v/v) FBS, 2 mM L-glutamine, 1 mM sodium pyruvate and Penicillin/Streptomycin at 100 IU/ml and 100 μg/ml, respectively. HT-29 cells were maintained in McCoys 5A supplemented with 10% (v/v) FBS, 2 mM L-glutamine, 1 mM sodium pyruvate, 1% (v/v) non-essential amino acids, 10 mM HEPES and Penicillin/Streptomycin at 100 IU/ml and 100 μg/ml, respectively. B16-F10 cells were maintained in DMEM supplemented with 10% (v/v) FBS, 2 mM L-glutamine, 10 mM HEPES and Penicillin/Streptomycin at 100 IU/ml and 100 μg/ml, respectively.
RPMI 8226 cells were seeded at 2×10^4 cells/well in 90 μl RPMI media containing 10% (v/v) FBS or 1% (v/v) FBS into 96 well black-walled, clear-bottom tissue culture plates. […] Formulae II-16, II-17 and Formula II-18 were serially diluted in media containing 1% or 10% FBS and added in triplicate to the test wells. […] The final concentration of Formula II-18 ranged from 2 μM to 630 pM.

For data set [8], the target named is T4, chymotrypsin-like activity of 20S proteasomes in PC-3 cells (Homo sapiens, UniProt P28074).
T4 construct: endogenous in cells; host or cells: PC-3 (ATCC CRL-1435)
The data set is described as follows: Chymotrypsin-like activity of 20S proteasomes in lysates of treated PC-3 cells. The class given is cell-based. The settings on record: 100 nM, 1 hr incubation. Here is the method:
PC-3 (ATCC, CRL-1435), the human prostate cancer cell line, was cultured in F12K medium supplemented with 2 mM L-glutamine, 100 units/ml penicillin, 100 μg/ml streptomycin and 10% heat inactivated fetal bovine serum at 37° C., 5% CO2 and 95% humidified air. […] DMSO was used as the vehicle control at a final concentration of 0.1%. Following 1 hr incubation of PC-3 cells with the compounds, the cells were washed 3× with ice-cold 1× Dulbecco's Phosphate-Buffered Saline (DPBS, Mediatech, Herndon, Va.). […] Cell debris was pelleted by centrifugation at 14,000 rpm for 10 min, 4° C. and supernatants (=cell lysates) were transferred to a new tube. Protein concentration was determined by the BCA protein assay kit (Pierce Biotechnology, Rockford, Ill.). […] The released coumarin (AMC) was measured fluorometrically by using λex=390 nm and λem=460 nm. The assay was performed in a microtiter plate (Corning 3904) and followed kinetically with measurements every five minutes for 2 hr. The total amount of protein used for each assay was 20 μg. The final concentration of Suc-LLVY-AMC and DMSO was 20 μM and 0.2%, respectively. Results are presented as the percent inhibition of the 20S proteasome chymotrypsin-like activity relative to the DMSO control.

Data set [9] concerns the target T5, chymotrypsin-like activity of 20S proteasomes in RPMI 8226 cells (Homo sapiens, UniProt P28074).
T5 construct: added to 2.5×10^5/ml RMPI 8226 cells; endogenous in cells; host or cells: RPMI 8226 (ATCC CCL-155)
T5 sequence (P28074 60-263): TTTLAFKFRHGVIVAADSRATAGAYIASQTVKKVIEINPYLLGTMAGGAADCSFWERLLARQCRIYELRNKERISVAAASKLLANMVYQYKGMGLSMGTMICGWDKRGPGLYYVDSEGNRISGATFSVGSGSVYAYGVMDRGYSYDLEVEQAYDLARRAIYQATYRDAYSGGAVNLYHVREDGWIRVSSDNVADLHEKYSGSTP
The data set is described as follows: Chymotrypsin-like activity of 20S proteasomes in lysates of treated RPMI 8226 cells. The note with it: RPMI-8226, read-out: % inhibition of the chymotrypsin-like activity of 20S proteasomes in RPMI 8226 cell lysates. The class given is cell-based. As for the experimental part:
RPMI 8226 (ATCC, CCL-155), the human multiple myeloma cell line, was cultured in RPMI 1640 medium supplemented with 2 mM L-glutamine, 100 units/ml penicillin, 100 μg/ml streptomycin, 1 mM sodium pyruvate and 10% heat inactivated fetal bovine serum at 37° C., 5% CO2 and 95% humidified air. […] DMSO was used as the vehicle control at a final concentration of 0.1%. Following 1 hr incubation of RMPI 8226 cells with the compounds, the cells were pelleted by centrifugation at 2,000 rpm for 10 sec at room temperature and washed 3× with ice-cold 1× Dulbecco's Phosphate-Buffered Saline (DPBS, Mediatech, Herndon, Va.). DPBS washed cells were lysed on ice for 15 min in lysis buffer (20 mM HEPES, 0.5 mM EDTA, 0.05% Triton X-100, pH 7.3) supplemented with protease inhibitor cocktail (Roche Diagnostics, Indianapolis, Ind.). Cell debris was pelleted by centrifugation at 14,000 rpm for 10 min, 4° C. and supernatants (=cell lysates) were transferred to a new tube. Protein concentration was determined by the BCA protein assay kit (Pierce Biotechnology, Rockford, Ill.). […] The released coumarin (AMC) was measured fluorometrically by using λex=390 nm and λem=460 nm. The assay was performed in a microtiter plate (Corning 3904) and followed kinetically with measurements every five minutes for 2 hr. The total amount of protein used for each assay was 20 μg. The final concentration of Suc-LLVY-AMC and DMSO was 20 μM and 0.2%, respectively.

The test system of another data set is HL-60/MX2. The data set is described as follows: Cell growth inhibition (resazurin), multidrug resistant HL-60/MX2. The note with it: ratio of EC50 values (HL-60/MX2:HL-60). Here is the method: Concentrations ranging from 6.32 μM to 2 nM were tested for II-2 and II-4.
HL-60/MX2 is a multidrug resistant tumor cell line derived from the human promyelocytic leukemia cell line, HL-60 and expresses reduced topoisomerase II activity. […] Mitoxantrone, the topoisomerase II targeting agent was included as a control.

Where “and” joins values, the source holds several entries; their conditions need not be identical. Equal values may be shown once. Read-outs that look alike come from different tables or passages of the source. Where only a bound is given, the exact number is not on record here.

As a reminder, the EC50 is the concentration needed to bring the measured effect to its halfway point. In the case of `CC(=O)O[C@H]1C(=O)[C@@]2(C)[C@H]([C@H](OC(=O)c3ccccc3)[C@]3(O)C[C@H](OC(=O)[C@H](O)[C@@H](NC(=O)c4ccccc4)c4ccccc4)C(C)=C1C3(C)C)[C@]1(OC(C)=O)CO[C@@H]1C[C@@H]2O` [Paclitaxel], the EC50 came to 2.93 µM in the data set on MES-SA/Dx5 (Homo sapiens, MES-SA/Dx5, 48 h) and 5.21 µM with MES-SA/Dx5. Further, the Fold change in the data set on MES-SA/Dx5 (ratio of EC50 values (MES-SA/Dx5:MES-SA)) is on record as approximately 800 fold.
In the case of `C[C@@]12OC(=O)[C@]1([C@@H](O)[C@H]1CCC[C@H](Cl)[C@H]1O)NC(=O)[C@@H]2CCCl` [Formula IV-3C], the EC50 was more than 20 µM in [1]; more than 20 µM in the data set on RPMI 8226 [2]; more than 20 µM in data set [3]; 4.9 µM and 10.6 µM in [5] (EC50 Chymotrypsin-like, Table 6, values in μM); 1.4 to 10.6 µM in data set [5] (EC50 values, chymotrypsin-like activity, range or bound stated in text, summary of Table 6); 7.76 µM in the data set on U266 [6] (Homo sapiens, U-266, 48 h, read-out: U266 EC50, Table 2). Moreover, in the data set with U266 [6] (read-out: U266 EC50, Table 2), the half-maximal effective concentration (EC50) was determined as 8.29 µM. In addition, the “cytotoxicity against U266, in words” value in the data set on U266 [4] is on record as “cytotoxic”.
What is called inhibition is the drop in the measured response relative to a control, in per cent. On to `CC[C@H]1C(=O)N[C@@]2([C@@H](O)[C@@H]3C=CCCC3)C(=O)O[C@@]12C` [Formula II-17], for which the EC50 in data set [1] is 0.573 µM and 0.602 µM. Further, the “cytotoxicity against RPMI 8226 in media containing 1% or 10% FBS, in words” value in the data set with RPMI 8226 [7] is listed as “cytotoxic”. Besides, the “% inhibition of the chymotrypsin-like activity of 20S proteasomes in PC-3 cell lysates” value in data set [8] worked out at 26%. In addition, in data set [9], the inhibition at 0.001 µM amounted to 6 ± 6%, the inhibition at 0.005 µM was found to be 10 ± 5%, the inhibition at 0.01 µM was 6 ± 6% and the inhibition at 0.05 µM amounted to 26 ± 5%. Besides, in [9], the inhibition at 0.1 µM was found to be 30 ± 4%, the inhibition at 0.5 µM was 39 ± 3%, the inhibition at 1 µM is 46 ± 4% and the inhibition at 10 µM was found to be 65 ± 5%.
`O=C1c2c(O)ccc(O)c2C(=O)c2c(NCCNCCO)ccc(NCCNCCO)c21` [Mitoxantrone, reference compound]: the Fold change in the data set with HL-60/MX2 is recorded as approximately 30 fold.
Turning to `CC(C)[C@H](O)[C@@]12NC(=O)[C@H](C)[C@@H]1OC2=O` [Omuralide, reference compound], in [8], the “% inhibition of the chymotrypsin-like activity of 20S proteasomes in PC-3 cell lysates” value is given as 36%. Besides, the inhibition at 0.1 µM is 36% in data set [8] (PC-3, read-out: % inhibition of the chymotrypsin-like activity of 20S proteasomes in PC-3 cell lysates) and 32 ± 8% in data set [9] (100 nM, 1 hr incubation, mean ± SD, n = 3). Moreover, the inhibition at 0.001 µM in data set [9] (1 nM, 1 hr incubation, mean ± SD, n = 3) came out at 5 ± 9%. Also, the inhibition at 0.005 µM in [9] (5 nM, 1 hr incubation, mean ± SD, n = 3) came to 8 ± 9%. Further, the inhibition at 0.05 µM in [9] (50 nM, 1 hr incubation, mean ± SD, n = 3) was found to be 17 ± 11%. In data set [9] (500 nM, 1 hr incubation, mean ± SD, n = 3), the inhibition at 0.5 µM came to 68 ± 11%.
